Laboratory results: patent publication US11351274B2, “Methods of using optical agents” (MediBeacon Inc., priority 2006, dated 2022)
Read-outs that look alike come from different tables or passages of the source.

What was measured:
[1] = Renal clearance in an intact rat (fluorescence from within the ear); assay type: in vivo, Sprague-Dawley rat; details: bolus injection into lateral tail vein, 2 ml of 0.4 mg/ml in PBS, 470 nm laser at ear
Method: (§1) Incident laser light having a wavelength of about 470 nm was delivered via a fiber optic bundle to the ear of an anesthetized intact Sprague-Dawley rat. A photodetector was used to detect fluorescence from within the ear. A background reading of fluorescence was obtained prior to administration of optical agent. A pyrazine agent (2 ml of a 0.4 mg/ml solution of 3,6-diaminopyrazine-2,5-dicarbonyl acid in PBS) was then administered to the rat by a bolus injection into the lateral tail vein.
The blood clearance time profile likely followed a two compartment pharmacokinetic model. The fluorescent signal arising from the agent concentration in the blood as a function of time was therefore fit to a double exponential decay. The equation employed to fit the data was: S=Ae^−t/τ1Be^−t/τ2+C (1) where S is the fluorescent light intensity signal measured, and t is the time point of the measurement. The decay times τ1 and τ2, and the constants A, B, and C were deduced from the fitting procedure. The non-linear regression analysis package in SigmaPiot® (Systat Software Inc., Richmond Calif.) was used to fit data to Eq. (1). In this and the following example, τ1 represents the time constant for vascular-extracellular fluid equilibrium, and T2 represents optical agent clearance from the blood.

[2] = Renal clearance in a bilaterally nephrectomized rat (fluorescence from within the ear); assay type: in vivo, Sprague-Dawley rat; details: bilaterally nephrectomized rat compared with intact rat
Method: as §1, with “An anesthetized Sprague-Dawley rat was bilaterally nephrectomized. Incident” for “Incident”, “of the” for “of an anesthetized intact Sprague-Dawley”, “of the pyrazine” for “of optical”, “agent. The” for “agent. A”, “vein. […] Specifically, the renal arteries were tied off to block blood flow to the kidneys.” for “vein.”
A comparison of clearance data from the intact rat (FIG. 1) and the bilaterally nephrectomized rat (FIG. 2) is shown in FIG. 3.

[3] = Detection of optical agent in a rat ureter by fluorescence; assay type: in vivo, Sprague-Dawley rat
Method: A Sprague-Dawley rat was anesthetized with a cocktail of ketamine (87 mg/kg) and xylazine (2.6 mg/kg) administered by intraperitoneal injection. After the animal had achieved the desired plane of anesthesia, a 25 gauge butterfly with 3″ tubing was placed in the lateral tail vein of the animal and flushed with saline, The rat was placed onto a heating pad and kept warm throughout the study.
An abdominal incision was made to access the ureters and expose the ureters to a laser having the appropriate wavelength to cause the optical agent employed to fluoresce. Data acquisition was initiated, and a background reading of fluorescence was obtained prior to administration of the optical agent.
The optical agent, 3,6-diaminopyrazine-2,5-dicarboxylic acid, was administered to the rat by a bolus injection into the lateral tail vein and traveled through the circulatory system and kidneys to reach the ureters. The dose of optical agent was about 2 mL of 0.4 mg/mL solution in PBS. The rat weighed approximately 250 g.
A 3 mW laser from Power Technology, Inc. (Little Rock, […].) was used to emit light into one end of a fiber optic bundle, the other end of the bundle being positioned adjacent the ureter. […] As shown in FIGS. 5-6, when the surgical field was exposed to incident light having a wavelength of about 470 nm, the optical agent within the ureters emitted fluorescent energy at a wavelength of about 530 nm. Images of the surgical field showing the fluorescing optical agent in the ureter are shown in FIGS. 5-6 (in the absence of a 500 nm long pass filter) and FIG. 7 (in the presence of a 500 nm long pass filter).

[4] = Excitation and emission wavelengths of optical agents; assay type: physicochemical; details: see Example 3 and FIG. 4
Description: In one exemplary embodiment, the optical agent is excited by light having a wavelength in the blue range of the visible portion of the electromagnetic spectrum (from about 430 nm to about 500 nm) and emits at a wavelength in the green range of the visible portion of the electromagnetic spectrum (from about 520 nm to about 565 nm). For example, fluorescein dyes can be excited with light with a wavelength of about 488 nm and have an emission wavelength of about 520 nm. As another example, 3,6-diaminopyrazine-2,5-dicarboxylic acid can be excited with light having a wavelength of about 470 nm and fluoresces at a wavelength of about 532 nm (see Example 3 and FIG. 4 herein).
In another embodiment, the excitation and emission wavelengths of the optical agent may fall in the near-infrared range of the electromagnetic spectrum. For example, indocyanine dyes, such as indocyanine green, can be excited with light with a wavelength of about 780 nm and have an emission wavelength of about 830 nm.

[5] = general statement in the description; cited from earlier work

Row | SMILES | period over which the agent was cleared from the bloodstream [1] | route of excretion concluded from failure to clear [2] | fluorescence emission wavelength within the ureters ([3]; incident light of about 470 nm, in vivo in rat ureter) | time after intravenous administration at which fluorescence within the ureter was detected ([3]; rat, about 2 mL of 0.4 mg/mL in PBS, tail vein bolus) | localisation of fluorescence in the surgical field ([3]; rat, ureter versus surrounding tissue) | fluorescence emission wavelength ([4]; excitation about 470 nm) | excitation wavelength [4] | emission wavelength [5] | excitation wavelength [5]
1 | Nc1nc(C(=O)O)c(N)nc1C(=O)O [3,6-diaminopyrazine-2,5-dicarboxylic acid] | slightly over twenty | renally excretable | about 530 nm | about 40 minutes | only observed from the ureter and not from any surrounding tissue | about 532 nm | about 470 nm | – | –
2 | CC1(C)C(/C=C/C=C/C=C/C=C2\N(CCCCS(=O)(=O)O)c3ccc4ccccc4c3C2(C)C)=[N+](CCCCS(=O)(=O)[O-])c2ccc3ccccc3c21 [indocyanine green] | – | – | – | – | – | – | – | about 830 nm | about 780 nm
